According to patent US20260217673A1, “NOVEL COMPOUND AS RON INHIBITOR” (LG CHEM, LTD., priority 2022, published 2026):

How the values were obtained:
RON = RON (Homo sapiens, UniProt Q04912); experiment: RON inhibitory activity, TR-FRET kinase assay; format: biochemical; settings: RON protein, ULight-labeled Poly GT substrate
Method: To measure the RON inhibitory activity of the example compounds, the IC50 of the compounds was measured using time-resolved fluorescence energy transfer (TR-FRET).
Specifically, the compound was prepared at a concentration of 1 mM with 100% DMSO and serially diluted 10 times through 3-fold dilution. 2 μl of the serially diluted compound was added to a 96-well plate containing 48 μl of 1× kinase reaction buffer (50 mM HEPES (pH 7.4), 0.01% Tween-20, 5 mM DTT, 0.5 mM Na3VO4, 2 mM EGTA, 10 mM MgCl2).
The RON protein was diluted with a RON storage buffer (50 mM Tris-HCl (pH 7.5), 150 mM NaCl, 0.5 mM EDTA, 0.02% Triton X-100) to a concentration of 49.3 nM, and then diluted again with 1× kinase reaction buffer to be 0.4 nM. As a substrate cocktail, a RON-specific substrate mixture (40 μM ULight-labeled Poly GT, 100 nM ATP) was prepared at a concentration twice the final reaction concentration.
(§1) After that, a 384-well plate was prepared, and 2.5 μl of the diluted example compound was added to each of the experimental group wells, and 2.5 μl of a 4% DMSO solution was dispensed into high control wells and low control wells.
(§2) Afterward, 2.5 μl of 0.4 nM RON was dispensed into the high control wells and the experimental group wells, and 2.5 μl of 1× kinase reaction buffer was added to the low control wells, and after centrifugation at 1000 RPM for 40 seconds at room temperature, the mixtures were incubated at room temperature for 20 to 30 minutes. Then, 5 μl of the substrate cocktail (2×) was dispensed into all wells, and after centrifugation at 1000 RPM for 40 seconds at room temperature, the mixtures were incubated at room temperature for 60 minutes. Afterward, 5 μl of 30 mM EDTA was added to all wells to terminate the reaction, and the mixtures were incubated again at room temperature for 5 minutes. Thereafter, 5 μl of 4× phosphotyrosine antibodies (Perkin Elmer) containing europium was added to all wells and incubated at room temperature for 60 minutes. After the incubation, the 384-well-plate was read with a Vison plate reader. At this time, the excitation wavelength was 340 nm, and the emission wavelengths were 620 nm and 665 nm. The IC50 value of each example compound was derived using the GraphPd Prism7 program.

cMET = cMET (Homo sapiens, UniProt P08581); experiment: MET (cMET) enzyme inhibitory activity, TR-FRET kinase assay; format: biochemical; settings: cMET protein, TK peptide substrate
Method: In addition, to measure cMET enzyme activity inhibition, an experiment was performed by the same method as the experiment for measuring the RON enzyme activity inhibition.
Specifically, the compound was prepared at a concentration of 1 mM with 100% DMSO and serially diluted 10 times through 3-fold dilution. 2 μl of the serially diluted compound was added to a 96-well plate containing 48 μl 1× kinase reaction buffer (50 mM HEPES (pH 7.4), 0.05% BSA, 0.005% Tween-20, 1 mM DTT, 0.5 mM MnCl2, 20 mM MgCl2).
The cMET protein was diluted in a cMET storage buffer (50 mM Tris-HCl (pH 7.5), 150 mM NaCl, 0.05% Brij35, 1 mM DTT, 10% glycerol) to a concentration of 263 nM, and then diluted again with 1× kinase reaction buffer to 2 nM. As a substrate cocktail, a MET-specific substrate mixture (5 μM TK peptide, 10 mM ATP) was prepared at a concentration twice the final reaction concentration.
as §1
as §2, with “μl of 2 nM cMET” for “μl of 0.4 nM RON”, “2 nM cMET was dispensed” for “0.4 nM RON was dispensed”, “was dispensed to the high” for “was dispensed into the high”, “μl of 90 mM EDTA” for “μl of 30 mM EDTA”

RON, sequence (Q04912 25-1400, species assumed): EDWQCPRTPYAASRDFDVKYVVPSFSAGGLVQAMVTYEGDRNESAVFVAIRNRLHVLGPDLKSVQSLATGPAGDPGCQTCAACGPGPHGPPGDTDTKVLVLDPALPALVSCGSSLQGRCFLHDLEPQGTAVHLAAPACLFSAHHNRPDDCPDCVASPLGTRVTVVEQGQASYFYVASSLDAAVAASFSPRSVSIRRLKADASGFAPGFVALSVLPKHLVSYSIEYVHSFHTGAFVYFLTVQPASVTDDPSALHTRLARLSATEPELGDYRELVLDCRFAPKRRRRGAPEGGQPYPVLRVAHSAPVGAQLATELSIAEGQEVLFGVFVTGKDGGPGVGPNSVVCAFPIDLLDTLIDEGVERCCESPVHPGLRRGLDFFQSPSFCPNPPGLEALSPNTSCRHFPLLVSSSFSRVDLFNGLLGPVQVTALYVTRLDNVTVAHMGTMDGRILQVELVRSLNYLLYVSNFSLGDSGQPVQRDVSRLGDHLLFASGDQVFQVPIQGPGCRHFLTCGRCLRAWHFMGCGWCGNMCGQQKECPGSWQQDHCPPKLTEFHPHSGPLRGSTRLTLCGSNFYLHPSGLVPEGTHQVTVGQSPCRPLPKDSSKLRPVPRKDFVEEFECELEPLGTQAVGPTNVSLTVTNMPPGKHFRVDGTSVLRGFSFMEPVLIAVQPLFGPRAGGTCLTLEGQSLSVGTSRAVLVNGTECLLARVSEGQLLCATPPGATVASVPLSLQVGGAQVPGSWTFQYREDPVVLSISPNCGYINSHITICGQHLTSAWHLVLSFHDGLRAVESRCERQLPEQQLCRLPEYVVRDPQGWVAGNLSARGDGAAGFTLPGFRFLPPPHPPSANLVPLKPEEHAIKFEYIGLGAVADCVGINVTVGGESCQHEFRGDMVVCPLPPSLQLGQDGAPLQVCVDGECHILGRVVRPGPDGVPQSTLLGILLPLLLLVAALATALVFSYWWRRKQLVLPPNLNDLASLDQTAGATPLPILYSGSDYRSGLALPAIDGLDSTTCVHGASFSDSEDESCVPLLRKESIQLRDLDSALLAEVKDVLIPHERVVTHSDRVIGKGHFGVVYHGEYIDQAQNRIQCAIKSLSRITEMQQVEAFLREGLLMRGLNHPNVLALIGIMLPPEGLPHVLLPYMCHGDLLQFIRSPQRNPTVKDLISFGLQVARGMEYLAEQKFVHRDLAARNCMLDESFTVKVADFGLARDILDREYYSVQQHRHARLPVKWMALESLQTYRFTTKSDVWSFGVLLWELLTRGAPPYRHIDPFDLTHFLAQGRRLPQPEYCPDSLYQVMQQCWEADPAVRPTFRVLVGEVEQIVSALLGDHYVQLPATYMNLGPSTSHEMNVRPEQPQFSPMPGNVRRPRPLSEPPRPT
cMET, sequence (P08581 25-1390): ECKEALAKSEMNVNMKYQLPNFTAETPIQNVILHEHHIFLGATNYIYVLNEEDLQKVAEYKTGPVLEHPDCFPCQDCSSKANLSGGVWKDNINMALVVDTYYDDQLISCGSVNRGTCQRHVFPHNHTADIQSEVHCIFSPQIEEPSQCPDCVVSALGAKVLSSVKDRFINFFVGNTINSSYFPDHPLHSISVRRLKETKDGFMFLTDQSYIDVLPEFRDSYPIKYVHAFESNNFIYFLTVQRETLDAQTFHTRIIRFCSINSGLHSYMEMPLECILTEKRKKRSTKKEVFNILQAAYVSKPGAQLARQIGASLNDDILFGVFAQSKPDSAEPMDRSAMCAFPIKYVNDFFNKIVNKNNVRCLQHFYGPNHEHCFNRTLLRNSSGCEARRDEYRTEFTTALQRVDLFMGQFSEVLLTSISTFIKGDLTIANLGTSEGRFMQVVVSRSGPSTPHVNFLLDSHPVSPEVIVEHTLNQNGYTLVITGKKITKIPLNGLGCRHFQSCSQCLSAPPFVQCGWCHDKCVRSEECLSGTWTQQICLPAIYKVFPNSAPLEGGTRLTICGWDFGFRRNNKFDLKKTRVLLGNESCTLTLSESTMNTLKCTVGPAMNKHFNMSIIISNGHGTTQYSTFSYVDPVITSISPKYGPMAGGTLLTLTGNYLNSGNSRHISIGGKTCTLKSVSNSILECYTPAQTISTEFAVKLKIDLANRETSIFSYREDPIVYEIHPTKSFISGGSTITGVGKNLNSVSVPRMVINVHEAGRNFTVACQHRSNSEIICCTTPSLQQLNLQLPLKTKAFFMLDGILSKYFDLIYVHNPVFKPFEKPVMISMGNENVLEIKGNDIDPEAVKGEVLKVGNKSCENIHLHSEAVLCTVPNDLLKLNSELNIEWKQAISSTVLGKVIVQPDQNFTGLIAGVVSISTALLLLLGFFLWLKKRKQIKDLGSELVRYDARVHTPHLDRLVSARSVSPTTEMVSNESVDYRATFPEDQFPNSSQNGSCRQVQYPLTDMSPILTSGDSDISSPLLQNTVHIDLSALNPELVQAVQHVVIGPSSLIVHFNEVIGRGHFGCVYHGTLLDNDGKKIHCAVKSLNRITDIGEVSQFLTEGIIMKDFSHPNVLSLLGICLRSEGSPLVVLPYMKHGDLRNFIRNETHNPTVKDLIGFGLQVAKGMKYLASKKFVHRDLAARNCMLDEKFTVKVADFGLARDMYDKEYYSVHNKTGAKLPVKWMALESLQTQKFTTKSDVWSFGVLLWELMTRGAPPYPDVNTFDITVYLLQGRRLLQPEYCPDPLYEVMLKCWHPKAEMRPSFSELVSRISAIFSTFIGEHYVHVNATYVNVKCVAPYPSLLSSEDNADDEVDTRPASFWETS

IC50 (RON) | IC50 (cMET) | SMILES
< 50 nM | > 5000 nM | Nc1ncnc(Oc2c(F)cc(NC(=O)c3cnn(-c4ccccc4)c3C(F)(F)F)cc2F)c1Cl [Example 9, N-(4-((6-amino-5-chloropyrimidin-4-yl)oxy)-3,5-difluorophenyl)-1-phenyl-5-(trifluoromethyl)-1H-pyrazole-4-carboxamide]
< 50 nM | 500 to 5000 nM | N#Cc1c(Oc2c(F)cc(NC(=O)c3cnn(-c4ncccn4)c3C(F)(F)F)cc2F)ccnc1N [Example 35, N-(4-((2-amino-3-cyanopyridin-4-yl)oxy)-3,5-difluorophenyl)-1-(pyrimidin-2-yl)-5-(trifluoromethyl)-1H-pyrazole-4-carboxamide]
< 50 nM | 50 to 500 nM | CC(O)C#Cc1c(Oc2c(F)cc(NC(=O)c3cnn(-c4ncccc4F)c3C(F)(F)F)cc2F)ccnc1N (stereo not shown) [Example 57, N-(4-((2-amino-3-(3-hydroxybut-1-yn-1-yl)pyridin-4-yl)oxy)-3,5-difluorophenyl)-1-(3-fluoropyridin-2-yl)-5-(trifluoromethyl)-1H-pyrazole-4-carboxamide]
< 50 nM | 50 to 500 nM | Nc1nccc(Oc2c(F)cc(NC(=O)c3cnn(-c4ncccn4)c3C(F)(F)F)cc2F)c1C#CCO [Example 55, N-(4-((2-amino-3-(3-hydroxyprop-1-yn-1-yl)pyridin-4-yl)oxy)-3,5-difluorophenyl)-1-(pyrimidin-2-yl)-5-(trifluoromethyl)-1H-pyrazole-4-carboxamide]
< 50 nM | 500 to 5000 nM | Nc1ncnc(Oc2c(F)cc(NC(=O)c3cnn(-c4ncccc4Cl)c3C(F)(F)F)cc2F)c1Cl [Example 11, N-(4-((6-amino-5-chloropyrimidin-4-yl)oxy)-3,5-difluorophenyl)-1-(3-chloropyridin-2-yl)-5-(trifluoromethyl)-1H-pyrazole-4-carboxamide]
< 50 nM | 50 to 500 nM | N#Cc1c(Oc2c(F)cc(NC(=O)c3cnn(-c4ncccc4Cl)c3C(F)(F)F)cc2F)ccnc1N [Example 34, N-(4-((2-amino-3-cyanopyridin-4-yl)oxy)-3,5-difluorophenyl)-1-(3-chloropyridin-2-yl)-5-(trifluoromethyl)-1H-pyrazole-4-carboxamide]
< 50 nM | 50 to 500 nM | Nc1nccc(Oc2c(F)cc(NC(=O)c3cnn(-c4ncccc4Cl)c3C(F)(F)F)cc2F)c1C#CCO [Example 54, N-(4-((2-amino-3-(3-hydroxyprop-1-yn-1-yl)pyridin-4-yl)oxy)-3,5-difluorophenyl)-1-(3-chloropyridin-2-yl)-5-(trifluoromethyl)-1H-pyrazole-4-carboxamide]
50 to 500 nM | > 5000 nM | Nc1nccc(Oc2cc(F)c(NC(=O)c3cnn(-c4ccccc4)c3C(F)(F)F)cc2F)c1Cl [Example 6, N-(4-((2-amino-3-chloropyridin-4-yl)oxy)-2,5-difluorophenyl)-1-phenyl-5-(trifluoromethyl)-1H-pyrazole-4-carboxamide]
< 50 nM | > 5000 nM | Nc1nccc(Oc2c(F)cc(NC(=O)c3cnn(-c4ncccn4)c3C(F)(F)F)cc2F)c1CN1CCOCC1 [Example 48, N-(4-((2-amino-3-(morpholinomethyl)pyridin-4-yl)oxy)-3,5-difluorophenyl)-1-(pyrimidin-2-yl)-5-(trifluoromethyl)-1H-pyrazole-4-carboxamide]
< 50 nM | 50 to 500 nM | C#Cc1c(Oc2c(F)cc(NC(=O)c3cnn(-c4ncccc4Cl)c3C(F)(F)F)cc2F)ccnc1N [Example 27, N-(4-((2-amino-3-ethynylpyridin-4-yl)oxy)-3,5-difluorophenyl)-1-(3-chloropyridin-2-yl)-5-(trifluoromethyl)-1H-pyrazole-4-carboxamide]
< 50 nM | 500 to 5000 nM | Nc1nccc(Oc2c(F)cc(NC(=O)c3cnn(-c4cccnn4)c3C(F)(F)F)cc2F)c1Cl [Example 3, N-(4-((2-amino-3-chloropyridin-4-yl)oxy)-3,5-difluorophenyl)-1-(pyridazin-3-yl)-5-(trifluoromethyl)-1H-pyrazole-4-carboxamide]
< 50 nM | 500 to 5000 nM | C#Cc1c(Oc2c(F)cc(NC(=O)c3cnn(-c4ccccn4)c3C(F)(F)F)cc2F)ccnc1N [Example 29, N-(4-((2-amino-3-ethynylpyridin-4-yl)oxy)-3,5-difluorophenyl)-1-(pyridin-2-yl)-5-(trifluoromethyl)-1H-pyrazole-4-carboxamide]
500 to 5000 nM | 500 to 5000 nM | CCOCC(=O)N1CCC(n2ncc(C(=O)Nc3cc(F)c(Oc4ccnc(N)c4Cl)c(F)c3)c2C(F)(F)F)CC1 [Example 60, N-(4-((2-amino-3-chloropyridin-4-yl)oxy)-3,5-difluorophenyl)-1-(1-(2-ethoxyacetyl)piperidin-4-yl)-5-(trifluoromethyl)-1H-pyrazole-4-carboxamide]
< 50 nM | 50 to 500 nM | N#Cc1c(Oc2c(F)cc(NC(=O)c3cnn(-c4ncccc4F)c3C(F)(F)F)cc2F)ccnc1N [Example 33, N-(4-((2-amino-3-cyanopyridin-4-yl)oxy)-3,5-difluorophenyl)-1-(3-fluoropyridin-2-yl)-5-(trifluoromethyl)-1H-pyrazole-4-carboxamide]
50 to 500 nM | 500 to 5000 nM | N#Cc1c(Oc2c(F)cc(NC(=O)c3cnn(-c4cccnn4)c3C(F)(F)F)cc2F)ccnc1N [Example 36, N-(4-((2-amino-3-cyanopyridin-4-yl)oxy)-3,5-difluorophenyl)-1-(pyridazin-3-yl)-5-(trifluoromethyl)-1H-pyrazole-4-carboxamide]
< 50 nM | 500 to 5000 nM | Nc1nccc(Oc2c(F)cc(NC(=O)c3cnn(-c4ccccn4)c3C(F)(F)F)cc2F)c1C1CCOCC1 [Example 24, N-(4-((2-amino-3-(tetrahydro-2H-pyran-4-yl)pyridin-4-yl)oxy)-3,5-difluorophenyl)-1-(pyridin-2-yl)-5-(trifluoromethyl)-1H-pyrazole-4-carboxamide]
< 50 nM | 500 to 5000 nM | Nc1nccc(Oc2c(F)cc(NC(=O)c3cnn(-c4ncccn4)c3C(F)(F)F)cc2F)c1C1CC1 [Example 41, N-(4-((2-amino-3-cyclopropylpyridin-4-yl)oxy)-3,5-difluorophenyl)-1-(pyrimidin-2-yl)-5-(trifluoromethyl)-1H-pyrazole-4-carboxamide]
< 50 nM | 50 to 500 nM | Nc1nccc(Oc2c(F)cc(NC(=O)c3cnn(-c4ncccc4Cl)c3C(F)(F)F)cc2F)c1I [Example 16, N-(4-((2-amino-3-iodopyridin-4-yl)oxy)-3,5-difluorophenyl)-1-(3-chloropyridin-2-yl)-5-(trifluoromethyl)-1H-pyrazole-4-carboxamide]
500 to 5000 nM | > 5000 nM | Nc1nccc(Oc2cc(F)c(NC(=O)c3cnn(-c4ccccc4)c3C(F)(F)F)c(F)c2)c1Cl [Example 8, N-(4-((2-amino-3-chloropyridin-4-yl)oxy)-2,6-difluorophenyl)-1-phenyl-5-(trifluoromethyl)-1H-pyrazole-4-carboxamide]
< 50 nM | 50 to 500 nM | Nc1nccc(Oc2c(F)cc(NC(=O)c3cnn(-c4ncccc4F)c3C(F)(F)F)cc2F)c1I [Example 15, N-(4-((2-amino-3-iodopyridin-4-yl)oxy)-3,5-difluorophenyl)-1-(3-fluoropyridin-2-yl)-5-(trifluoromethyl)-1H-pyrazole-4-carboxamide]
